Test results: PMC2873402, “Discovery of High-Affinity Protein Binding Ligands – Backwards” (PLoS ONE, 2010)
Read-outs that look alike come from different tables or passages of the source. Bridge positions count the residues as written; N and C are the ends. Ends that are not written are not given here. I, II: the chains in the order shown. * marks the point of attachment. StBu = CC(C)(C)S*

Assays:
[1] = test system: GRP58 (protein disulfide-isomerase A3); test: SPR screening against immobilized GRP58; assay type: binding; settings: 100 nM synbody, Biacore T-100, CM5 amine coupling, 25°C immobilization, 90 s association, 240 s dissociation
Experimental: (§1) The synbody (100nM concentration) was screened by Surface Plasmon Resonance (SPR) against immobilized AKT1 and GRP58 on a Biacore T-100 SPR. The synbody appeared to have high affinity for AKT1 and low affinity for GRP58 (Figure S2). To accurately determine the binding kinetics of the synbody-AKT1 complex, several concentrations of synbody were injected over a low-density surface of biotin-labeled AKT1 captured on a Neutratvidin SPR chip using a Biacore A-100.
(§2) SPR screening of the synbody against AKT1 and GRP58 was performed on a Biacore T-100 (GE Healthcare, Piscataway, NJ, USA). The series S sensor chip CM5, amine coupling reagents and HBS-EP were obtained from GE Healthcare. A standard amine immobilization protocol was performed at 25°C using NaHCO3 (10mM in 150mM NaCl, pH 4.5) as the immobilization buffer. The CM-5 dextran chip was activated by a 10 minute injection of a freshly prepared 1∶1 solution of 400 mM 1-ethyl-3-(3-dimethylaminopropyl)-carbodimide (EDC): 100 mM N-hydroxysuccimide (NHS) in water. The NHS-carboxy groups of the dextran surface were treated with a solution of AKT1 or GRP58 (25 µg/ml) in sodium acetate (pH 5.0) for 8 mins at a flow rate of 10 µl/min. Any residual active sites were then quenched by a 5 min pulse of ethylene diamine (1M, pH 8.5). […]

AKT1 [2] = target: T1, AKT1 (Homo sapiens, UniProt P31749); test: SPR screening against immobilized AKT1; assay type: binding; design: purchased Life Technologies; settings: 100 nM synbody, Biacore T-100, CM5 amine coupling, 25°C immobilization, 90 s association, 240 s dissociation
T1 sequence (P31749 whole entry): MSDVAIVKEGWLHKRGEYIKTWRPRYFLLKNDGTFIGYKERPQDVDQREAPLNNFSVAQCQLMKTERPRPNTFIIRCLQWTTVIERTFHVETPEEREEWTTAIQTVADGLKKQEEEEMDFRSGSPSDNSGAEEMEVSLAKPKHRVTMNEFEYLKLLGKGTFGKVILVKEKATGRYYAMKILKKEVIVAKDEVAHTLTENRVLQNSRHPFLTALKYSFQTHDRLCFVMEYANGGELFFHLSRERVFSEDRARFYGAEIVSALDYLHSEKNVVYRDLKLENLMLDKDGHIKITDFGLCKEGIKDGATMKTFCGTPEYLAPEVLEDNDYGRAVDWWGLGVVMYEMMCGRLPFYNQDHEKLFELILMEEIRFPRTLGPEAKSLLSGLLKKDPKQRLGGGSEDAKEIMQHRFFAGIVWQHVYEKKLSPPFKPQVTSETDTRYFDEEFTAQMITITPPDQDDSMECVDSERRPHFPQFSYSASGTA
Experimental: as §1, §2

AKT1 [3] = target: T1, AKT1; test: SPR determination of Kd / binding kinetics on AKT1; design: purchased Life Technologies
Experimental: To a solution of AKT1 (25µg, 4.16×10^−10 moles, 1.0 equiv.) in 50mM Na2CO3 in 150mM NaCl, pH 9.0 (200 µl), was added a solution of NHS-LC-LC-Biotin (Thermo Scientific) (9.4 µl, 8.32×10^−10 moles, 2.0 equiv.) in DMSO. The reaction was kept on ice at 0°C with frequent agitation for 2 hours, before the mixture was transferred to a 10 kDa Millipore Microcon filter and diluted with HBS-N (200 µl). The excess biotin was removed by spinning the filter at 12,000 G until the volume on top of the filter had been reduced to 0.25 the original volume. The retentate was washed with an additional 200 µl of HBS-N and spun for a further 15 minutes. The filter was then flipped over and the protein recovered (15 µg, 60%). After filtration, an appropriate volume of 10× HBS-N was added to the sample to increase the HBS-N concentration to a 1× equivalent.
Determination of the binding kinetics of the synbody on AKT1 was performed on a Biacore A-100. The series S sensor chip CM5, amine coupling reagents and HBS-EP were obtained from GE Healthcare. A standard amine immobilization protocol was performed at 25°C using NaHCO3 (10mM in 150mM NaCl, pH 4.5) as the immobilization buffer. Spots 1,2 and 3 on each of the four flow cells of the CM-5 dextran chip were activated by a 10 minute injection of a freshly prepared 1∶1 solution of 40 0mM EDC : 100 mM NHS in water. The NHS-carboxy groups of spot 1 of the dextran surface were treated with a solution of neutravidin (50 µg/ml) in sodium acetate (pH 5.0) for 8 mins at a flow rate of 10 µl/min. Any residual active sites were then quenched by a 5 min pulse of ethylene diamine (1M, pH 8.5). Similarly neutravidin was coupled to spots 2 and 3 via a 12 and 16 min injection cycle respectively, followed by quenching. An additionally 7 min injection of ethylene diamine was then pulsed over spots 1–3 to ensure no activated sites remained. […]
For high-resolution kinetics, biotin-tagged AKT1 was captured in multiple spot densities with Rmax's ranging from 20–100 RUs. […] Association and dissociation were monitored for 3 and 16 min, respectively. […]

AKT1 [4] = target: T1, AKT1; test: IP of AKT isoforms spiked into A549 lysate: AKT1; assay type: binding; design: purchased Life Technologies; settings: 250 ng of each isoform in 500 µg A549 lysate, Western Blot
Experimental: This apparent specificity was investigated further by performing an IP using 250 ng of each isoform of AKT spiked into 500 µg of A-549 cell lysate.
For all IP experiments, either a 1 µM or 250 nM solution of biotin-conjugated synbody was captured on 20 µL of streptavidin coated paramagnetic M-280 Dynabeads (Life Technologies) according to the manufacturers protocol. Synbody coated beads were washed five times with 1 mL of 100 mM phosphate buffered saline containing 0.05% Tween-20 (PBST) and incubated overnight at 4°C with shaking in the desired amount of target protein in A549 cell lysate. For Kd determination experiments, serial dilutions of AKT1 or ABL1 were prepared in binding buffer. After binding, beads were washed five times with 1 mL of PBST and heated at 70°C in 20 µL of 1× LDS loading buffer (Invitrogen) for 10 minutes. The samples were analyzed by SDS-PAGE gel with Western Blot detection using the appropriate antibody and imaged on a GE Healthcare Typhoon Trio.

I: AHKVVPQRQIRHAYNRYGSGKC(StBu)-NH2 / II: FRGWAHIFFGPHVIYRGGSG (amide I:21-II:C) [synbody]
affinity for GRP58 by SPR screening [1]: low affinity | affinity for AKT1 by SPR screening (AKT1 [2]): high affinity | kon (AKT1 [3]; Biacore A-100, biotin-labeled AKT1 on neutravidin, synbody 25 nM to 0.78 nM, 1:1 binding model, read-out: association rate, ka): 200000 M⁻¹ s⁻¹ | koff (AKT1 [3]; Biacore A-100, biotin-labeled AKT1 on neutravidin, synbody 25 nM to 0.78 nM, 1:1 binding model, read-out: dissociation rate, kd): 0.0003 s⁻¹ | koff (AKT1 [3]; Figure 3A, 12.5 and 6.25 nM synbody, Biacore A-100, 1:1 binding model, read-out: koff): 0.000295 s⁻¹ | IP of AKT1 (isoform selectivity) (AKT1 [4]): selectively precipitates AKT1
